The text below walks through data of article PMC13266999, “Designing Antibiotics with Inherent Resistance to Efflux as a Strategy to Revive Discovery against Multidrug-Resistant Pathogens” (Journal of Medicinal Chemistry, 2026).

Broadly, the MIC is the least concentration at which growth counts as inhibited.

≈ marks a conversion by molar mass, not a printed value. Where “and” joins values, the source holds several entries; their conditions need not be identical. Identical values can stand only once. Like-named read-outs stand apart in the source and are kept apart here. Where only a bound is given, the exact number is not on record here.

One test deals with S. aureus. Description: MIC (microbroth dilution). The class given is cell-based, Staphylococcus aureus. The note with it: for MIC: Staphylococcus aureus; for fold difference in MIC, SA-1199B vs SA-1199: NorA-overexpressing vs WT. The method, then: (§1) All bacteria were maintained on tryptic soy agar (TSA), except Streptococcus spp., which were maintained on Columbia agar plates containing 5% horse blood. […] Bacteria were grown to stationary phase in liquid culture overnight, with shaking at 200 rpm, before being back diluted to the relevant starting concentration for each assay below. MICs were measured by the microbroth dilution method. […] Absorbance at OD600 was read on a CLARIOstar spectrophotometer (BMG Labtech) and the MIC was defined as the minimum concentration of compound where no visible growth was detected. […] MICs were also performed in the presence of the outer membrane permeator, polymyxin b nonapeptide (PMBN) following the same MIC method but with the following variation. The 2-fold dilution series of compound was prepared as above, then 50 μL of PMBN at a final concentration of 30 μg/mL was added to relevant wells, while 50 μL/well of blank media was added to the remaining wells. Bacteria were then added at 50 μL/well for a starting concentration as above. […] The MICs were read and defined as above. All animal procedures were performed by the contract research organization Pharmacology Discovery Services Taiwan in accordance with the Guide for the Care and Use of Laboratory Animals. The procedures were approved by the Institutional Ethics Committee of Pharmacology Discovery Services Taiwan, Ltd. (approval no. AB127662), in compliance with animal welfare legislation in Taiwan.
Background: In broth dilution the organism is exposed to a series of concentrations in liquid medium.

Another test concerns E. faecalis. Description: MIC (microbroth dilution). It counts as cell-based, Enterococcus faecalis. The note with it: Enterococcus faecalis, read-out: MIC. The method, then: as §1
The subject of test [1] is NorA overexpressing strain NCTC 13616. Description: Reserpine growth (efflux inhibition) assay. As to conditions: for AUC of growth curve: biological replicates 1-3.
Protocol: Statistical analyses were performed with GraphPad Prism V9.5.0. […] Unpaired t tests were used when comparing two samples in the gyrase assays.
In another test the test system is A. baumannii. Description: A. baumannii efflux chequerboard assay. The class given is cell-based, Acinetobacter baumannii. As to conditions: for MIC: Acinetobacter baumannii, read-out: MIC alone. The method, then: Checkerboard assays were performed by preparing two separate 2-fold dilution series of compounds in two 96 well plates, one horizontally, one vertically. […] Plates were incubated at 37 C for 20 h and the absorbance (OD600) was read on a CLARIOstar spectrophotometer (BMG Labtech). The fractional inhibitory concentration was calculated as follows: ΣFIC = [(MIC of A in combination)/(MIC of A alone)] + [(MIC of B in combination)/(MIC of B alone)].

Setting [2] is: ATCC9144, ATCC 9144, read-out: MIC.
The mark [3] stands for this setting: NCTC13277, NCTC 13277, read-out: MIC.
[4] abbreviates: NCTC13616, NCTC 13616, read-out: MIC.
Where [5] appears, read: ATCC17978, A. baumannii ATCC 17978.

Regarding `O=C(O)c1cn(C2CC2)c2cc(N3CCN[C@@H](Cc4cccc5ccccc45)C3)c(F)cc2c1=O` [Compound 12, (S)-1-Cyclopropyl-6-fluoro-7-(3-(naphthalen-1-ylmethyl)piperazin-1-yl)-4-oxo-1,4-dihydroquinoline-3-carboxylic acid], the MIC with S. aureus (setting [2]) was 4 µg/mL (≈ 8.48 µM); with S. aureus (setting [3]), 8 µg/mL (≈ 17 µM); with S. aureus (setting [4]) it was 8 µg/mL (≈ 17 µM); in the test on S. aureus (SA-1199, read-out: MIC) it was 2 µg/mL (≈ 4.24 µM); against S. aureus (SA-1199B (NorA-overexpressing)), 4 µg/mL (≈ 8.48 µM); in the test with S. aureus (USA300, USA300, read-out: MIC), 8 to 16 µg/mL (≈ 17 to 33.9 µM). The MIC in the test on E. faecalis (NCTC775, NCTC 775) is 8 µg/mL (≈ 17 µM); in the test on E. faecalis (NCTC12201, NCTC 12201), 8 µg/mL (≈ 17 µM); in the test on E. faecalis (NCTC12204, NCTC 12204) it was 8 µg/mL (≈ 17 µM).

For the compound `O=C(O)c1cn(C2CC2)c2c(Cc3cccc4ccccc34)c(N3CCNCC3)c(F)cc2c1=O` [Compound 19, 1-Cyclopropyl-6-fluoro-8-(naphthalen-1-ylmethyl)-4-oxo-7-(piperazin-1-yl)-1,4-dihydroquinoline-3-carboxylic acid], the MIC with S. aureus (setting [2]) worked out at 64 µg/mL (≈ 136 µM); in the test on S. aureus (setting [3]) it was 32 µg/mL (≈ 67.9 µM); with S. aureus (setting [4]), 32 µg/mL (≈ 67.9 µM); with S. aureus (SA-1199, read-out: MIC), 16 µg/mL (≈ 33.9 µM); in the test with S. aureus (SA-1199B (NorA-overexpressing)) it was 16 µg/mL (≈ 33.9 µM); in the test with S. aureus (USA300, USA300, read-out: MIC), 32 µg/mL (≈ 67.9 µM). Moreover, the minimal inhibitory concentration (MIC) with E. faecalis (NCTC775, NCTC 775) is 16 µg/mL (≈ 33.9 µM); in the test on E. faecalis (NCTC12201, NCTC 12201), 16 µg/mL (≈ 33.9 µM); with E. faecalis (NCTC12204, NCTC 12204) it was 16 µg/mL (≈ 33.9 µM).

As for `C[C@H]1COc2c(N3CCN(c4ncccn4)CC3)c(F)cc3c(=O)c(C(=O)O)cn1c23` [Compound 42, (S)-9-Fluoro-3-methyl-7-oxo-10-(4-(pyrimidin-2-yl)piperazin-1-yl)-2,3-dihydro-7H-[1,4]oxazino[2,3,4-ij]quinoline-6-carboxylic acid], the “fold difference in MIC, SA-1199B vs SA-1199” value in the test with S. aureus was determined as 4 fold. For the same compound, the MIC in the test on S. aureus (setting [2]) was 0.06 µg/mL (≈ 0.141 µM); with S. aureus (setting [3]), more than 32 µg/mL; with S. aureus (setting [4]) it was 8 µg/mL (≈ 18.8 µM); in the test on S. aureus (SA-1199, read-out: MIC), 0.06 µg/mL (≈ 0.141 µM); against S. aureus (SA-1199B (NorA-overexpressing)) it was 0.25 µg/mL (≈ 0.588 µM). For the same compound, the “AUC of growth curve” value is 1.819 and 2.376 and 1.866 in test [1] (0.25 MIC + R (reserpine)); 2.249 and 2.537 and 2.169 in test [1] (0.25 MIC); 1.376 and 1.633 and 1.162 in test [1] (0.5 MIC + R (reserpine)); 1.682 and 1.538 and 1.705 in test [1] (0.5 MIC).

Turning to `C[C@H]1COc2c(N3CCC(Nc4ncccn4)C3)c(F)cc3c(=O)c(C(=O)O)cn1c23` (stereo partly drawn) [Compound 43, (3S)-9-Fluoro-3-methyl-7-oxo-10-(3-(pyrimidin-2-ylamino)pyrrolidin-1-yl)-2,3-dihydro-7H-[1,4]oxazino[2,3,4-ij]quinoline-6-carboxylic acid], the “fold difference in MIC, SA-1199B vs SA-1199” value in the test with S. aureus is listed as 2 fold. Also, the MIC in the test on S. aureus (setting [2]) was determined as 0.125 µg/mL (≈ 0.294 µM); in the test on S. aureus (setting [3]) it was 2 µg/mL (≈ 4.7 µM); in the test with S. aureus (setting [4]), 2 µg/mL (≈ 4.7 µM); in the test on S. aureus (SA-1199, read-out: MIC) it was 0.016 µg/mL (≈ 0.0376 µM); against S. aureus (SA-1199B (NorA-overexpressing)), 0.03 µg/mL (≈ 0.0705 µM). In the test with S. aureus (fluoroquinolone-resistant NCTC 13616 and NCTC 13277), the “fold potentiation compared to levofloxacin” value is recorded as 8 fold. Moreover, the “AUC of growth curve” value in test [1] (0.25 MIC + R (reserpine)) is 2.601 and 2.681 and 2.535; in test [1] (0.25 MIC), 3.079 and 3.208 and 2.944; in test [1] (0.5 MIC + R (reserpine)) it was 0.9550 and 0.7355 and 0.8940; in test [1] (0.5 MIC), 1.061 and 0.9440 and 1.050. Further, in test [1] (0.5x MIC with vs without reserpine), the “efflux liability in reserpine assay” value is reported as “did not demonstrate efflux liability”.

As to `CNC(C)C1CCC(N)C(OC2C(N)CC(N)C(OC3OCC(C)(O)C(NC)C3O)C2O)O1` (stereo not drawn) [Gentamicin], the “MIC +50 (0.25x MIC)” value in the test on A. baumannii (A. baumannii ATCC 17978) was 2.13 to 4.25 µg/mL; in the test on A. baumannii (A. baumannii AYE), >1,024 μg/mL. In the test on A. baumannii (A. baumannii ATCC 17978), the “MIC +50 (0.5x MIC)” value is 0.03 to 1.75 µg/mL. Besides, the results for the MIC with A. baumannii (setting [5]) and in the test with A. baumannii (A. baumannii AYE) were 4 µg/mL and more than 1020 µg/mL, respectively.

In the case of `NC[C@H]1O[C@H](O[C@H]2[C@H](O)[C@@H](O[C@H]3O[C@H](CO)[C@@H](O)[C@H](N)[C@H]3O)[C@H](N)C[C@@H]2N)[C@H](N)C[C@@H]1O` [Tobramycin], in the test with A. baumannii (A. baumannii ATCC 17978), the “MIC +50 (0.25x MIC)” value was 1.88 to 3.76 µg/mL and the “MIC +50 (0.5x MIC)” value lay in the range of 0.014 to 0.55 µg/mL. In the test on A. baumannii (A. baumannii AYE), the “MIC +50 (0.25x MIC)” value fell in the range of 56 to 248 µg/mL, the “MIC +50 (0.5x MIC)” value lay within 0.375 to 136 µg/mL and the minimal inhibitory concentration (MIC) was 256 µg/mL. The MIC with A. baumannii (setting [5]) is 4 µg/mL.

On to Colistin, for which, in the test on A. baumannii (A. baumannii ATCC 17978), the “MIC +50 (0.25x MIC)” value fell in the range of 0.015 to 0.123 µg/mL, the “MIC +50 (0.5x MIC)” value fell in the range of 0.0017 to 0.015 µg/mL and the MIC alone was 0.25 µg/mL. Moreover, in the test on A. baumannii (A. baumannii AYE), the “MIC +50 (0.25x MIC)” value came to 0.015 µg/mL, the “MIC +50 (0.5x MIC)” value fell in the range of 0.003 to 0.007 µg/mL and the MIC alone lay in the range of 0.25 to 0.5 µg/mL.
